# Measured values: publication PMC10103840 (Frontiers in Pharmacology, 2023)
# Where “and” joins values, the source holds several entries; their conditions need not be identical. Equal values may be shown once.
# Legend:
# BeWo b30 cells [1] = assay: Sodium fluorescein (NaF) exclusion assay for monolayer formation; format: in vitro ADME, human; conditions: day 9 after seeding, 5 μM apical, 60 min
# Procedure: Measurement of transepithelial electrical resistance (TER) was used to assess the tightness of a cell-to-cell barrier, and the electrical capacitance Ccl, provided additional information about the properties of the cell layer (e.g., presence of microvilli and other membrane extrusions). TER and Ccl values were recorded in 15 min time intervals, using a cellZscope®. TER values were corrected for the surface area (Ωcm^2) and the reference resistance (well with the same filter insert and medium, but absence of cells). Moreover, a permeability assay with sodium fluorescein (NaF) was performed on days 7–11 (n = 3). The basolateral compartment of a transparent 24-well plate consisted of PBS only (1′000 μL) while NaF (5 μM in PBS; 200 μL) was added to the apical compartment for 60 min. The control consisted of cell-free inserts (n = 3). Basolateral samples (50 μL) were directly added to black Nunc MaxiSorp microtiter plates, and concentrations were determined using a Cytation 3 fluorescence microplate reader (BioTek Instruments; excitation wavelength 460 nm; emission wavelength 515 nm). […]
# hyperforin, h ypericin, and valerenic acid. The compounds were spiked into PBS and then […]
# to avoid interference of any stabilit y issues. […]
# four independent experiments.
# Supplementary Figure 3. Evaluation of monolayer formation using a sodium fluorescein […]
# Control consists of a cell-free insert […]
# [2] = Stability assay in PBS, perfusion medium and placental homogenates; format: in vitro ADME, human; conditions: 360 min
# Procedure: In short, after spiking the various matrices with the study compounds, samples were either processed immediately for U(H)PLC-MS/MS analysis (C0), or kept at 4°C/37°C on an orbital shaker (600 rpm) for 360 min before processing for U(H)PLC-MS/MS analysis. Samples were processed via solid phase extraction or protein precipitation prior to analysis.
# [3] = System adherence test (empty perfusion chamber, maternal circuit only); format: in vitro ADME; conditions: % of initial concentration, 5 μM in PM, no placental tissue, 240 min, n = 3
# Procedure: The dissolution and adherence of the compounds to the perfusion equipment and to the tubing system was assessed before starting perfusions with human placentae. […] The compounds were directly dissolved in PM at a final concentration of 5 μM (100 mL reservoir) and individually tested in three independent experiments (n = 3).
# [4] = In vitro Transwell permeability assay across BeWo b30 cell layer; conditions: human
# Procedure: (§1) BeWo b30 choriocarcinoma cells were obtained from Dr. Tina Buerki-Thurnherr (Empa, St. Gallen, Switzerland), with permission from Dr. Alan L. Schwartz (Washington University School of Medicine, St. Louis MO, USA), and were cultivated in F-12 K Nut Mix supplemented with 10% heat inactivated FBS, antibiotics (100 U/mL penicillin, 100 µg/mL […]), and 2 mM L-glutamine (all from Gibco). The cells were cultivated in a humidified incubator at 37°C and 5% CO2 atmosphere.
# (§2) BeWo b30 cells were cultured on Transwell® polycarbonate membrane inserts (24-well format; 0.4 μm pore size, 0.33 cm^2 cell growth area, 200 μL apical volume, 1′000 μL basolateral volume; Corning, Sigma-Aldrich) at a density of 60′000 cells/well. These inserts were then cultivated in a cellZscope (nanoAnalytics) at 37°C/5% CO2. Cell culture medium was replaced every 2 days up to 11 days to find the best possible conditions.
# (§3) BeWo b30 cells were cultured in transparent 24-well plates under the same conditions as mentioned above and transferred to the cellZscope® at day 8 to record TER and Ccl values. After 24 h (day 9) and when a TER of 30–60 Ωcm^2 was reached and Ccl was between 0.5 and 5.0 μF/cm^2, the permeability assay was initiated by adding valerenic acid (5 μM; in HBSS with 4% BSA) to the apical compartment, while the basolateral compartment contained 1′000 μL of HBSS only. […] Samples (150 μL apical, 800 μL basolateral) were collected at each time point (0, 15, 30, 60 min; one insert per time point). After 60 min, a part of the inserts was transferred back to the cellZscope® to monitor TER and Ccl values during another 24 h. The cells grown on the other part of the inserts were quickly washed with 200 μL of cold HBSS and then lysed with 700 μL acetonitrile (100 μL apical, 600 μL basolateral) for 40 min on an orbital shaker (450 rpm, room temperature) to determine the test substance cell contents.
# (§4) Apparent permeability coefficients (Papp) were calculated according to the following Eq. 1: Papp cm/s=∆Q/∆t/ACA0 (1) where ΔQ/Δt is the rate of amount transported to the receiver compartment, A is the membrane surface area (0.33 cm^2), and C A0 is the initial concentration in the apical compartment.
# (§5) The clearance values were calculated according to the following Eq. 2 ([Neuhaus et al., 2008]): Clearance μL=CBnVB/CA−VB/VA∙∑CBn−1 (2) where C Bn and V B are the concentration and volume in the basolateral compartment at a specific timepoint (n), respectively; C A and VA are the concentration and volume in the apical compartment, respectively, and C Bn-1 is the total amount of substance found in the basolateral compartment up to the previous timepoint (n-1).
# (§6) Recovery (mass balance) of each compound was calculated according to the following Eq. 3: Recovery %=CAfVA+CBfVB+CCfVC/CA0VA∙100 (3) where C Af , C Bf and C Cf are the final compound concentrations in apical, basolateral, and cellular compartments, respectively; C A0 is the initial concentration in the apical compartment, and V A , V B and V C are the volumes in the respective compartments.
# (§7) For valerenic acid, 150 µL of the IS in MeOH were added to 50 µL of sample, and the mixture centrifuged for 20 min at 13′200 rpm/16′100 rcf at 10°C (Centrifuge 5415R, Eppendorf). An aliquot (50 µL) of the supernatant was collected and transferred into HPLC vials. Vials were centrifuged for additional 20 min prior to U(H)PLC-MS/MS analysis in full loop mode (2 µL).
# BeWo b30 cells [5] = assay: as above
# Procedure: as §1, §2, §3, §4, §5, §6, §7
# placental tissue = assay: Histopathological evaluation of perfused placentae; parameters: species or system human
# Procedure: Immediately after perfusion the placentae were fixed in 4% paraformaldehyde for at least 24 h. Tissue samples from representative placental tissue sections, each from perfused, non-perfused, and transitional area were prepared to perform a pathological examination. For this purpose, the tissue was embedded in paraffin, cut (∅ 2-3 µm), and stained (standard hematoxylin-eosin stain, Braun-Brenn modified Gram stain) according to the standards of routine histopathological diagnosis of the Department of Pathology and Molecular Pathology (University Hospital of Zurich). […] The blood void and width of the intervillous space and fetal blood vessels in the chorionic villi provided information about the quality of perfusion, and particular attention was paid to the presence of intravascular thrombi. General signs of degeneration, such as vacuolization of the cytotrophoblast, villous vascular endothelium viability, and formation of hydropic villous changes compared with non-perfused tissue indicated whether tissue damage might have occurred during perfusion. Microscopic effects and placental tissue damage in the perfused area were expressed in relative amounts (%) to the non-perfused tissue.
# [6] = Transwell control experiments across cell-free inserts; conditions: semi-permeable cell-free insert, within 60 min, 5 μM
# in vitro = conditions: human, pH 7.2
# BeWo cells = conditions: BeWo b30 cells, ref Spiess et al., 2022b; cited from earlier work
# [7] = non-perfused area of same placenta
# [8] = after 240 min of perfusion, 5 μM added to maternal circuit
smiles,measurement,setting,value
"O=C([O-])c1ccccc1-c1c2ccc(=O)cc-2oc2cc([O-])ccc12.[Na+].[Na+] [NaF, sodium fluorescein]",Basolateral amount of NaF,BeWo b30 cells [1],2.8 % of the initial NaF concentration
"CC1=C2[C@H](/C=C(\C)C(=O)O)CC[C@@H](C)[C@H]2CC1 [Valerenic acid, valerenic acid]",Stability in PBS and PM,[2],approx. 100%
same,Compound lost / adhering to the perfusion equipment,[3],5.6% and 5.6% ± 1.9%
same,"recovery at 60 min, 5 μM",[4],73.7%
same,Passage across the placental cell layer (in words),"BeWo b30 cells [5]; 5 μM apical, HBSS with 4% BSA, 60 min",did not cross the placental cell layer within 60 min
same,Papp,"BeWo b30 cells [5]; apical to basolateral, BeWo b30 cell layer, 5 μM",zero
same,Global placental pathology: Else,placental tissue,Formation of artificial cavities in 10% of perfused areas and N and Singular non-occlusive thrombus in stem villus; CCB
same,Sharp transition perfused/non-perfused,placental tissue,Y and N
same,Extravasations into villous stroma (in words),placental tissue; after perfusion,no extravasations into villous stroma
same,Ruptures of villous vessels (in words),placental tissue; after perfusion,no ruptures of villous vessels
same,Emptiness of villous vessels in non-perfused,placental tissue; [7],10% and 1%
same,Hydropic changes in non-perfused,placental tissue; [7],5% and 0%
same,Intervillous spaces without blood in non-perfused,placental tissue; [7],70% and 50% and 60% and 40%
same,Thrombi in villous vessels: in non-perfused too?,placental tissue; [7],1%
same,Vacuolated trophoblast in villi: in non-perfused too?,placental tissue; [7],0% and 5%
same,Thrombi in vessels of stem villi (in words),placental tissue; perfused and non-perfused,no thrombi detectable
same,Dilatated intervillous space,placental tissue; perfused area,50% and 90% and 70%
same,Intervillous spaces without blood,placental tissue; perfused area,95%
same,Emptiness of villous vessels,"placental tissue; perfused area, individual experiments",95% and 80% (2×) and 90%
same,Clearance across cell-free insert,[6],28.3 µL
same,Concentration in the fetal compartment,human placental barrier; [8],44.0 % of initial concentration
same,Concentration in the maternal compartment,human placental barrier; [8],45.0 % of initial concentration
same,Sampling (% found),human placental barrier; amount removed by sampling during 240 min perfusion,24.1 ± 4.8%
same,F perfusate (% found),"human placental barrier; fetal perfusate after 240 min, % of amount in maternal sample at beginning",33.1 ± 10.7% and 33.1%
same,FM ratio at 240 min,"human placental barrier; fetal/maternal concentration ratio, 240 min, antipyrine from control perfusions",1.01
same,M perfusate (% found),"human placental barrier; maternal perfusate after 240 min, % of amount in maternal sample at beginning",34.4%
same,Time to equilibrium between fetal and maternal compartment,"human placental barrier; perfusion profiles, antipyrine as connectivity control",240 min
same,"recovery at 240 min, 5 μM",in vitro,91.5%
same,"Concentrations not lowering viability, no increase in apoptosis or genotoxicity, no negative effect on metabolic activity and cell differentiation",BeWo cells,up to 30 μM
